Patent US10758549B2, “Compositions of obeticholic acid and methods of use” (Intercept Pharmaceuticals, Inc., priority 2015, dated 2020)

Experiments:
[1] = Example 10: clinical pharmacology / pharmacokinetics of OCA; format: in vivo, human; conditions: for systemic exposure versus dose: 5, 10, and 25 mg once daily for 14 days; for metabolite-to-parent ratio: after daily administration of obeticholic acid; for median time (Tmax) of peak plasma concentrations: glyco-OCA and tauro-OCA conjugates, multiple oral doses of OCA 10 mg once daily
Method: This example describes clinical pharmacology and dosing of obeticholic acid (OCA—including obeticholic acid compositions described herein). […] OCA can be supplied as an oral tablet containing obeticholic acid in a formulation as described herein.
Median Tmax for glyco-OCA and tauro-OCA is 10 hours.
Following an oral administration of 25 mg [^14C]-OCA, about 87% of the dose is excreted in feces through biliary secretion. Less than 3% of the dose is excreted in the urine with no detection of OCA.

[2] = Physiologic pharmacokinetic model of OCA (population PK fit and simulations); design: species or system human; conditions: normal hepatic function, model estimate
Method: Plasma levels of OCA and its conjugates were measured in healthy subjects and cirrhotic patients with varying degrees of hepatic impairment. A physiologic pharmacokinetic model for OCA was developed to quantitatively describe the absorption, distribution, metabolism, and excretion of OCA in patients with and without hepatic impairment. The model was based on a published multi-compartment PK model for CDCA, and consisted of systemic, hepatobiliary, and intestinal systems. The model was used to simulate the pathophysiological abnormalities caused by cirrhosis including decreased hepatic uptake, portal-systemic shunting, decreased liver volume, and differences in amino acid conjugation.
This examples describes development of a physiologic PK model to quantitatively describe the absorption, distribution, metabolism, and excretion of OCA. In addition, the model was used to define the effects of hepatic impairment to predict the systemic and liver exposure to OCA in subjects with various degrees of liver impairment relative to healthy subjects with normal liver function. The model was developed based on 3 studies in healthy volunteers and 2 studies in patients with varying degrees of hepatic impairment […].
Data from was used to develop the model in healthy subjects (n=160) and then adjust for hepatic impairment (n=32) using the data from the above Examples. After development, the model was validated with data sourced from healthy subjects and cirrhotic patients.
The data used in model development included subject identifiers, time of dosing and sample collection, plasma drug concentrations (OCA, glyco-OCA, and tauro-OCA), dose amount, disease status (e.g., Child-Pugh score), and meal consumption information. Study participants received standardized meals at specified times during inpatient observation. Gallbladder contraction was assumed to last 90 minutes after the start of a meal. Drug concentrations below the limit of quantification (BLQ) were imputed to half of the lower limit of quantification (LLOQ). Observed and BLQ concentrations of OCA, glyco-OCA, and tauro-OCA associated with samples drawn prior to the first dose were excluded from the analyses.
A number of structural modifications were made to the base CDCA model in order to adapt it for use with OCA. For simplification, a single space was used to represent the gut (small and large intestines). Since OCA is an exogenous molecule, it was assumed that there was no endogenous synthesis and an absorption compartment with a first-order transfer coefficient (Ka) was included to represent the administration and absorption kinetics of an oral OCA dose. Based on steric hindrance by the 6-ethyl group of OCA, no bacterial 7-alpha dehydroxylation biotransformation activity (i.e., CDCA to lithocholic acid) was included in the model. Compartment volumes in the model were fixed to physiological values from the base CDCA model. The OCA model used the physiological flow values for blood, bile and gastrointestinal transit from the original physiologic PK model for CDCA, with the exception of flows from bile duct to gallbladder and from bile duct to gut. The physiological values from the base model led to poor predictions and may not be applicable due to the simplification of the enteral system into a unified gut compartment. The biotransformation and transport rates in the model, being dependent on chemical entity structure, were estimated by fitting the model to the plasma concentration time profiles of OCA, glyco-OCA, and tauro-OCA.
The PK model was first developed using the OCA, glyco-OCA, and tauro-OCA plasma concentration time profiles from healthy volunteers with normal hepatic function. Model parameter estimates related to healthy physiology were then held constant while the PK model was further developed using OCA, glyco-OCA, and tauro-OCA plasma concentration time profiles from patients with hepatic impairment (Child-Pugh scores A, B, and C). […]

[3] = normal hepatic function, Fixed; cited from earlier work
[4] = target: T1, farnesoid X receptor (FXR) (Homo sapiens, UniProt Q96RI1); conditions: in vitro / on FXR; cited from earlier work
T1 sequence (Q96RI1 1-486): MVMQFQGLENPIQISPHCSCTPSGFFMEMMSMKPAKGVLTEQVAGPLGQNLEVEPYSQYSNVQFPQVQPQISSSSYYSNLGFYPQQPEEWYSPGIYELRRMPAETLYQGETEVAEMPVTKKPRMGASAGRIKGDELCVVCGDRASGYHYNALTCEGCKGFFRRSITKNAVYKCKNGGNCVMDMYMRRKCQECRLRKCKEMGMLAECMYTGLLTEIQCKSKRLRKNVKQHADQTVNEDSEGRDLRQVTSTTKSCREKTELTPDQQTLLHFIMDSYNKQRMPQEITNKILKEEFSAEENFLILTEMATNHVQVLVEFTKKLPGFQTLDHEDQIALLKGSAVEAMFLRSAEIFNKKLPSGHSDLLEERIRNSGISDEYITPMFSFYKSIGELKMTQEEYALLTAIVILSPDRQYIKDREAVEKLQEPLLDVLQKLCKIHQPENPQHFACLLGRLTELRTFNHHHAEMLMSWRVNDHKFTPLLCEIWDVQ

CC[C@H]1[C@@H](O)[C@@H]2[C@H](CC[C@]3(C)[C@@H]([C@H](C)CCC(=O)NCC(=O)O)CC[C@@H]23)[C@@]2(C)CC[C@@H](O)C[C@@H]12 [glyco-OCA]
systemic exposure versus dose [1]: increase more than proportionally with dose
metabolite-to-parent ratio [1]: 13.8
median time (Tmax) of peak plasma concentrations [1]: 10 h
b38: Glyco-OCA rate of deconjugation to OCA [2]: 0.0431 h⁻¹
t9: Glyco-OCA transport rate from sinusoidal space to liver [2]: 1210 h⁻¹
t19: Glyco-OCA transport rate from liver to bile duct [2]: 7.44 h⁻¹
t33: Glyco-OCA rate of absorption from gut to portal space [2]: 0.904 h⁻¹
t12: Glyco-OCA and tauro-OCA transport rate from liver to sinusoidal space [3]: 1.62 h⁻¹
pharmacological activity relative to OCA (parent drug) [4]: nearly equipotent

CC[C@H]1[C@@H](O)[C@@H]2[C@H](CC[C@]3(C)[C@@H]([C@H](C)CCC(=O)NCCS(=O)(=O)O)CC[C@@H]23)[C@@]2(C)CC[C@@H](O)C[C@@H]12 [tauro-OCA]
systemic exposure versus dose [1]: increase more than proportionally with dose
metabolite-to-parent ratio [1]: 12.3
median time (Tmax) of peak plasma concentrations [1]: 10 h
b37: Tauro-OCA rate of deconjugation to OCA [2]: 0.0200 h⁻¹
t11: Tauro-OCA transport rate from sinusoidal space to liver [2]: 1615 h⁻¹
t21: Tauro-OCA transport rate from liver to bile duct [2]: 9.28 h⁻¹
t35: Tauro-OCA rate of absorption from gut to portal space [2]: 1.62 h⁻¹
t12: Glyco-OCA and tauro-OCA transport rate from liver to sinusoidal space [3]: 1.62 h⁻¹
pharmacological activity relative to OCA (parent drug) [4]: nearly equipotent
